Structures can show the parent of a compound that is named as a salt. Where two headings read alike, the source gives them in different places.
Assays:
[1] = tested on: cholesterol biosynthesis in which HMG-CoA reductase serves as a rate limiting enzyme (rat liver microsome and sup fraction); assay: Test A: Inhibition of cholesterol biosynthesis from acetate in vitro; type: biochemical, male Wistar rat; settings: for Relative activities by Test A: based on the activities of CS-514 by Test A being evaluated to be 1; for IC50: Test A, rat liver microsome and sup fraction, [2-14C]sodium acetate, 2 hours at 37° C., read-out: IC50 (molar concentration), inhibitory activities by Test A
Procedure: Enzyme solution was prepared from liver of male Wistar rat billialy connulated and discharged bile for over 24 hours. Liver was cut out at mid-dark and microsome and supernatant fraction which was precipitable with 40-80% of saturation of ammonium sulfate (sup fraction) were prepared from liver homogenate according to the modified merhod of Knauss et. al.; Kuroda, M., et. al., Biochim. Biophys. Acta, 489, 119 (1977). For assay of cholesterol biosynthesis, microsome (0.1 mg protein) and sup fraction (1.0 mg protein) were incubated for 2 hours at 37° C. in 200 μl of the reaction mixture containing ATP; 1 mM, Glutathione; 6 mM, Glucose-1-phosphate; 10 mM, NAD; 0.25 mM, NADP; 0.25 mM, CoA; 0.04 mM and 0.2 mM [2-^14 C]sodium acetate (0.2 μCi) with 4 μl of test compound solution dissolved in water or dimethyl sulfoxide. To stop reaction and saponify, 1 ml of 15% EtOH-KOH was added to the reactions and heated at 75° C. for 1 hour. Nonsaponifiable lipids were extracted with petroleum ether and incorporated ^14 C radioactivity was counted. Inhibitory activity of compounds was indicated with IC50.
(§1) With respect to the compounds of the present invention, the inhibitory activities against the cholesterol biosynthesis in which HMG-CoA reductase serves as a rate limiting enzyme, were measured by the above Test A and B. The results are shown in Tables 2, 2-2 and 3. Further, the results of the measurements by Test C are also presented.

[2] = tested on: cholesterol biosynthesis in Hep G2 cells; assay: Test B: Inhibition of cholesterol biosynthesis in culture cells; type: cell-based; settings: acetate added at 0 hr; for Relative activities by Test B-1: based on the activities of CS-514 by Test B-1 being evaluated to be 1
Procedure: Hep G2 cells at over 5th passage were seeded to 12 well plates and incubated with Dulbecco's modified Eagle (DME) medium containing 10% of fetal bovine serum (FBS) at 37° C., 5% CO2 until cells were confluent for about 7 days. Cells were exposed to the DME medium containing 5% of lipoprotein deficient serum (LpDS) prepared by ultracentrifugation method for over 24 hours. Medium was changed to 0.5 ml of fresh 5% LpDS containing DME before assay and 10 μl of test compound solution dissolved in water or DMSO were added. 0.2 μCi of [2-^14 C]sodium acetate (20 μl ) was added at 0 hr(B-1) or 4 hrs(B-2) after addition of compounds. After 4 hrs further incubation with [2-^14 C]sodium acetate, medium was removed and cells were washed with phosphate buffered saline(PBS) chilled at 4° C. Cells were scraped with rubber policeman and collected to tubes with PBS and digested with 0.2 ml of 0.5 N KOH at 37° C. Aliquot of digestion was used for protein analysis and remaining was saponified with 1 ml of 15% EtOH-KOH at 75° C. for 1 hour. Nonsaponifiable lipids were extracted with petroleum ether and ^14 C radioactivity was counted. Counts were revised by cell protein and indicated with DPM/mg protein. Inhibitory activity of compounds was indicated with IC50.
as §1

[3] = tested on: cholesterol biosynthesis; assay: Test C: Inhibition of cholesterol biosynthesis in vivo; design: species or system Male Sprague-Dawley rats; settings: rats
Procedure: Male Sprague-Dawley rats weighing about 150 g were fed normal Purina chow diet and water ad libitum, and exposed to 12 hours light/12 hours dark lighting pattern (2:00 PM-2:00 AM dark) prior to use for in vivo inhibition test of cholesterol biosynthesis. Animals were separated groups consisting of five rats as to be average mean body weight in each groups. […] As control, rats were orally administered only water or vehicle. At 90 minutes after sample administration, rats were injected intraperitoneally with 10 μCi of [2-^14 C]sodium acetate at volume of 0.2 ml per one. 2 Hours later, blood samples were obtained and serum were separated immediately. Total lipids were extracted according to the method of Folch et al. and saponified with EtOH-KOH. Nonsaponifiable lipids were extracted with petroleum ether and radio activity incorporated into nonsaponifiable lipids was counted.
Inhibitory activity was indicated as percent decrease of counts in testing groups (DPM/2 ml serum/2 hours) from that in control group.

[4] = Test D: Acute toxicity; design: species or system ICR male mice; settings: mouse, in vivo, oral, 0.5% CMC suspension, read-out: mortality after seven days
Procedure: A 0.5% CMC suspension of a test compound was orally administered to ICR male mice (group of from one to three mice). The acute toxicity was determined based on the mortality after seven days. With compound I-5-8 and I-5-11 of the present invention, the mortality was 0% even when they were orally administered in an amount of 824 mg/kg and 982 mg/kg, respectively.

CC(C)c1nc(-c2ccccc2)nc(-c2ccc(F)cc2)c1/C=C/[C@@H]1C[C@@H](O)CC(=O)O1 (relative stereo) [Compound I-3-8, (E)-6-[4'-(4''-fluorophenyl)-6'-(1''-methylethyl)-2'-phenylpyrimidin-5 '-ylethenyl]-4-hydroxy-3,4,5,6-tetrahydro-2H-pyran-2-one]
Relative activities by Test A [1]: 5.2

CC[C@H](C)C(=O)O[C@H]1C[C@H](O)C=C2C=C[C@H](C)[C@H](CC[C@@H](O)C[C@@H](O)CC(=O)O)[C@H]21 [CS-514, reference compound]
IC50 [1]: 12.5 nM
IC50 ([2]; Homo sapiens, HepG2, Test B-1, Hep G2 cells, read-out: IC50 (molar concentration), Test B-1): 1400 nM
percent decrease of counts relative to control group ([3]; oral administration of 10 mg/kg): 55%

CCOC(=O)CC(O)CC(O)/C=C/c1c(-c2ccc(F)cc2)nc(Cc2ccccc2)nc1C1CC1 (centres unmarked) [Compound I-1-12]
Relative activities by Test B-1 [2]: 41.3

CCOC(=O)CC(O)CC(O)/C=C/c1c(-c2ccc(F)cc2)nc(-c2cccc(Cl)c2)nc1C1CC1 (centres unmarked) [Compound I-1-13]
Relative activities by Test B-1 [2]: 41.6

CCOC(=O)CC(O)CC(O)/C=C/c1c(-c2ccc(F)cc2)nc(-c2ccc(OC)cc2)nc1C1CC1 (centres unmarked) [Compound I-1-14]
Relative activities by Test B-1 [2]: 72.5

Cc1nc(-c2ccccc2)nc(-c2ccc(F)cc2)c1/C=C/C(O)CC(O)CC(=O)O (centres unmarked) [Compound I-5-1, Sodium salt of (E)-3,5-dihydroxy-7-[4'-(4''-fluorophenyl)-6'methyl-2 2'-phenylpyrimidin-5'-yl]hept-6-enoic acid]
IC50 [1]: 18 nM

Cc1nc(C)c(/C=C/C(O)CC(O)CC(=O)O)c(-c2ccccc2)n1 (centres unmarked) [Compound I-5-2]
IC50 [1]: 5000 nM

Cc1nc(-c2ccccc2)nc(-c2ccccc2)c1/C=C/C(O)CC(O)CC(=O)O (centres unmarked) [Compound I-5-3]
IC50 [1]: 100 nM

CC(C)c1nc(-c2ccccc2)nc(-c2ccc(F)cc2)c1/C=C/C(O)CC(O)CC(=O)O (centres unmarked) [Compound I-5-8]
Relative activities by Test A [1]: 4.6
Relative activities by Test B-1 [2]: 36.1
mortality at 168 h ([4]; 824 mg/kg): 0%

O=C(O)CC(O)CC(O)/C=C/c1c(-c2ccc(F)cc2)nc(-c2ccccc2)nc1C1CC1 (centres unmarked) [Compound I-5-11]
Relative activities by Test A [1]: 15.9
Relative activities by Test B-1 [2]: 28.4
mortality at 168 h ([4]; 982 mg/kg): 0%

O=C(O)CC(O)CC(O)/C=C/c1c(-c2ccc(F)cc2)nc(Cc2ccccc2)nc1C1CC1 (centres unmarked) [Compound I-5-12]
Relative activities by Test A [1]: 14.8
Relative activities by Test B-1 [2]: 46.3

O=C(O)CC(O)CC(O)/C=C/c1c(-c2ccc(F)cc2)nc(-c2cccc(Cl)c2)nc1C1CC1 (centres unmarked) [Compound I-5-13]
Relative activities by Test A [1]: 15.9

COc1ccc(-c2nc(-c3ccc(F)cc3)c(/C=C/C(O)CC(O)CC(=O)O)c(C3CC3)n2)cc1 (centres unmarked) [Compound I-5-14]
Relative activities by Test A [1]: 16.1

Cc1ccc(-c2nc(-c3ccc(F)cc3)c(/C=C/C(O)CC(O)CC(=O)O)c(C3CC3)n2)cc1 (centres unmarked) [Compound I-5-15]
Relative activities by Test A [1]: 14.5
Relative activities by Test B-1 [2]: 58.5
percent decrease of counts relative to control group ([3]; oral administration of 0.5 mg/kg): 35%

O=C(O)CC(O)CC(O)/C=C/c1c(-c2ccc(F)cc2)nc(-c2ccc(-c3ccccc3)cc2)nc1C1CC1 (centres unmarked) [Compound I-5-16]
Relative activities by Test A [1]: 1.9

O=C(O)CC(O)CC(O)/C=C/c1c(-c2ccc(F)cc2)nc(-c2cccc(C(F)(F)F)c2)nc1C1CC1 (centres unmarked) [Compound I-5-17]
Relative activities by Test A [1]: 12.2

CC[C@H](C)C(=O)O[C@H]1C[C@@H](C)C=C2C=C[C@H](C)[C@H](CC[C@@H]3C[C@@H](O)CC(=O)O3)[C@H]21 [Mevinolin, reference compound]
IC50 [1]: 14 nM

From patent US5026708A, “Pyrimidine type mevalonolactones” (Nissan Chemical Industries Ltd., priority 1987, dated 1991)
